Measurements taken from patent US12558354B2, “Tumor necrosis factor alpha (TNF-alpha) small molecule inhibitor” (AJOU UNIVERSITY INDUSTRY-ACADEMIC COOPERATION FOUNDATION, priority 2019, dated 2026).

Columns and labels:
[1] = tested on: human dermal fibroblasts (HDFs); experiment: Cell viability (MTT) assay in human dermal fibroblasts; assay type: cell-based; conditions: HDFs, 24 hours
Protocol: FIG. 8A is a graph showing the effects of TIM1 and a solvent thereof, DMSO, on the viability of human dermal fibroblasts, in which cells (10^4/well) were treated with DMSO at 3 different concentrations (0.5, 1, and 2%) and TIM1 at 8 different concentrations (1, 3.125, 6.25, 12.5, 25, 50, 100, and 200 μM) for 24 hours, and the cell viability was monitored by an MTT assay. FIG. 8B is a graph showing the effect of TIM1 on the viability of a mouse fibrosarcoma cell line [L929 (1.5×10^4/well)] under the same conditions as in FIG. 8A. All experiments were independently performed 4 times, and mean±SEM of the independent experiments was calculated using a two-tailed paired Student's t-test (*P<0.05).
In order to measure cell viability, a colorimetric […] (MTT) assay (Sigma-Aldrich Co.) was performed. HDFs were seeded at a density of 10^4/well in 96-well plates (BD Biosciences, San Jose, CA, USA), grown overnight, and then treated with a test compound at various concentrations for 24 hours. The next day, the medium was replaced with a medium (100 μl/well) containing a 10% MTT solution, followed by incubated at 37° C. for 3 hours. This solution was replaced with DMSO (100 μl/well), and the plates were incubated at room temperature for 30 minutes. Thereafter, the plates were read at a wavelength of 540 nm using a microplate spectrophotometer system (Molecular Devices, Silicon Valley, California).

[2] = target: T1, recombinant human TNF-α (rhTNF-α) (Homo sapiens, UniProt P01375); experiment: TNF-α-mediated hIL-8 secretion in HDFs (ELISA); assay type: cell-based; conditions: HDFs, 1, 10 and 50 μM, rhTNF-α 1 ng/ml, 24 hours
T1 construct: purchased Miltenyi Biotec
Protocol: HDFs were seeded at a density of 10^4/well in a 96-well plate (BD Biosciences) and grown overnight. The cells were treated for 24 hours with a 1-hour-pre-incubated mixture of rhTNF-α and test compounds. IL-8 secretion was assessed by a human IL-8 uncoated ELISA kit (eBioscience, Inc., San Diego, CA, USA), and IL-6 secretion level was assessed by a human IL-6 ELISA MAX™ Deluxe kit (BioLegend, San Diego, CA, USA). The microtiter plates were then analyzed at an appropriate wavelength using a microplate spectrophotometer system (Molecular Devices, Silicon Valley, California).

T1 sequence (P01375 77-233 limits assumed): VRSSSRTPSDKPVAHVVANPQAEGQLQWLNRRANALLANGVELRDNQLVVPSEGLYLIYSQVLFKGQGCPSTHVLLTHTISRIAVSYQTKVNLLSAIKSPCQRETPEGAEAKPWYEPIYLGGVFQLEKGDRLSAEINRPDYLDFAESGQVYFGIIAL

Compound | cytotoxicity (cell viability, MTT assay) [1] | inhibition of TNF-induced hIL-8, TIM1 derivatives compared with TIM1 [2]
CCCn1c(C)cc(-c2csc(NC(=O)c3nn(CC)c(=O)c4ccccc34)n2)c1C [TIM1-7, N-[4-(2,5-dimethyl-1-propylpyrrol-3-yl)-1,3-thiazol-2-yl]-3-ethyl-4-oxophthalazine-1-carboxamide] | negligible cytotoxicity | concentration-dependent inhibition of TNF-induced hIL-8 greater than that of TIM1
Cc1cc(-c2csc(N(C)C)n2)c(C)n1NC(=O)c1nn(C)c(=O)c2ccccc12 [TIM1d, N-{3-[2-(dimethylamino)-1,3-thiazol-4-yl]-2,5-dimethylpyrrol-1-yl}-3-methyl-4-oxophthalazine-1-carboxamide] | negligible cytotoxicity | concentration-dependent inhibition of TNF-induced hIL-8 greater than that of TIM1
Cc1cc(-c2csc(NC(=O)c3nn(C)c(=O)c4ccccc34)n2)c(C)n1CCc1ccccc1 [TIM1-14, N-{4-[2,5-dimethyl-1-(2-phenylethyl)pyrrol-3-yl]-1,3-thiazol-2-yl}-3-methyl-4-oxophthalazine-1-carboxamide] | negligible cytotoxicity | concentration-dependent inhibition of TNF-induced hIL-8 greater than that of TIM1
CCCCCCn1nc(C(=O)Nc2nc3ccccc3s2)c2ccccc2c1=O [TIM1-11, N-(1,3-benzothiazol-2-yl)-3-hexyl-4-oxophthalazine-1-carboxamide] | negligible cytotoxicity | concentration-dependent inhibition of TNF-induced hIL-8 greater than that of TIM1
Cc1csc(N(C(=O)c2nn(C)c(=O)c3ccccc23)c2ccccc2)n1 [TIM1-10, 3-methyl-N-(4-methy1-1,3-thiazol-2-yl)-4-oxo-N-phenylphthalazine-1-carboxamide] | negligible cytotoxicity | concentration-dependent inhibition of TNF-induced hIL-8 greater than that of TIM1
